Conditions: Liquid

CCCCCCC [heptane]
viscosity [mPa·s]
Conditions | 293.15 K | 298.15 K | 313.15 K | 333.15 K | 353.15 K | 363.15 K
100 kPa, Vibrating wire viscometry | 0.4151 | 0.3914 | 0.3379 | 0.2821 | 0.2406 | 0.2224
1000 kPa, Vibrating wire viscometry | 0.4202 | 0.3962 | 0.3412 | 0.2844 | 0.2435 | 0.2254
5000 kPa, Falling or rolling sphere viscometry | 0.4359 | – | 0.3564 | – | – | –
5000 kPa, Vibrating wire viscometry | 0.4354 | 0.4142 | 0.354 | 0.2965 | 0.2549 | 0.2374
10000 kPa, Falling or rolling sphere viscometry | 0.4603 | – | 0.3756 | – | – | –
10000 kPa, Vibrating wire viscometry | 0.4579 | 0.4329 | 0.3735 | 0.3121 | 0.2672 | 0.2493
20000 kPa, Falling or rolling sphere viscometry | 0.5074 | – | 0.4131 | – | – | –
20000 kPa, Vibrating wire viscometry | 0.5013 | 0.4756 | 0.4074 | 0.3415 | 0.2957 | 0.2757
30000 kPa, Falling or rolling sphere viscometry | 0.5517 | – | 0.4518 | – | – | –
30000 kPa, Vibrating wire viscometry | 0.5459 | 0.5175 | 0.4462 | 0.3746 | 0.3216 | 0.2996
40000 kPa, Falling or rolling sphere viscometry | 0.5949 | – | 0.4899 | – | – | –
40000 kPa, Vibrating wire viscometry | 0.595 | 0.5613 | 0.4806 | 0.4061 | 0.3493 | 0.3252
50000 kPa, Vibrating wire viscometry | 0.6406 | 0.6081 | 0.5208 | 0.4355 | 0.373 | 0.3504
60000 kPa, Falling or rolling sphere viscometry | 0.6912 | – | 0.5683 | – | – | –
60000 kPa, Vibrating wire viscometry | 0.6927 | 0.6535 | 0.5563 | 0.4681 | 0.4019 | 0.3754
70000 kPa, Vibrating wire viscometry | 0.7446 | 0.7026 | 0.5992 | 0.5022 | 0.4304 | 0.3978
80000 kPa, Falling or rolling sphere viscometry | 0.7864 | – | 0.6498 | – | – | –
80000 kPa, Vibrating wire viscometry | 0.7965 | 0.7519 | 0.64 | 0.5337 | 0.457 | 0.4243
100000 kPa, Falling or rolling sphere viscometry | 0.9027 | – | 0.7309 | – | – | –
100000 kPa, Vibrating wire viscometry | 0.9106 | 0.8572 | 0.7259 | 0.603 | 0.5119 | 0.4782
120000 kPa, Falling or rolling sphere viscometry | 1.031 | – | 0.8186 | – | – | –
120000 kPa, Vibrating wire viscometry | 1.028 | 0.972 | 0.8176 | 0.6736 | 0.5735 | 0.5314
140000 kPa, Vibrating wire viscometry | 1.16 | 1.089 | 0.9137 | 0.7509 | 0.6335 | 0.5865

From the NIST ThermoML archive (doi:10.1016/j.jct.2015.12.021)
